# Where “and” joins values, the source holds several entries; their conditions need not be identical. Equal values may be shown once.
# What was measured:
# Assay type in all cases: cell-based
# S. pneumoniae 22425 = test: Combination Time-kill kinetics; details: alone or with Gatifloxacin 4 × MIC (2 ug/ml)
# Experimental: (§1) As used herein, “synergy” refers to the in vitro effect of administration of a combination of an antibacterial agent such as a Fab I inhibiter, and antiinfective agent such that (1) the fractional inhibitory concentration (FIC) is less than or equal to 0.5 in an FIC assay described herein; or (2) there is at least a 100-fold (2 log10) increase in killing at 24 hours for the combination as compared with the bioactive agent alone in a time kill curve assay as described herein. An FIC of ≦0.5 is evidence of synergy. An additive response has an FIC value of >0.5 and less than or equal to 1, while an indifferent response has an FIC value of >1 and ≦2. An additive effect may still indicate that the combination of bioactive agent and cationic peptide are therapeutically useful.
# S. pneumoniae 22257 = test: Combination Time-kill kinetics; details: alone or with Azithromycin 4 × MIC (0.12 ug/ml) or Cefuroxime 4 × MIC (8 ug/ml)
# Experimental: as §1
# E. faecalis A6221420 = test: Combination Time-kill kinetics; details: alone or with Meropenem 4 × MIC (16 ug/ml)
# Experimental: as §1
# S. pyogenes SPY_20061 = test: checkerboard combination, clinical bacterial isolates (FIC); details: S. pyogenes SPY_20061 (EryS)
# Experimental: (§2) The combination experiments were performed and the results were interpreted using the checkerboard method as described in Eliopoulous, G. M., and R. C. Moellering, 1996, Antimicrobial combinations, p. 330-396, In V. Lorian (ed.), Antibiotics in laboratory medicine, 4th ed., The Williams & Wilkins Co., Baltimore, Md., in 96-well microtiter plates. Compound A was serially diluted along the x-axis of the test plate to a final volume of 50 μl, and compound B was serially diluted in a separate transfer plate. Dilutions in both plates were made in CAMHB (cation-adjusted Mueller Hinton broth) for Staphylococci and in CAMHB+5% sheep blood for Streptococci. Aliquots (50 μl) of Compound B were transferred to the test plate along the y-axis thereby achieving a checkerboard matrix of antimicrobial combinations (100 μl total volume) as in FIG. 4. The first column and last row (shaded in FIG. 4) contained only compound B or compound A, respectively. Plates were then inoculated with 10 μl of the test microorganism and MICs were determined according to NCCLS guidelines (see National Committee for Clinical Laboratory Standards, 2000, Methods for Dilution Antimicrobial Susceptibility Tests for Bacteria That Grow Aerobically—Fifth Edition, Approved Standard M7-A5, NCCLS, Wayne, Pa., USA.)
# (§3) Data analysis was performed as follows and according to Eliopoulous, G. M., and R. C. Moellering, 1996, Antimicrobial combinations, p. 330-396, In V. Lorian (ed.), Antibiotics in laboratory medicine, 4th ed., The Williams & Wilkins Co., Baltimore, Md. First individual FIC values for each combination in a plate were calculated: FIC(Fractional Inhibitory Concentration)=FICA+FICB • FICA=MICA+B/MICA i.e. the MIC of combination of compound A+compound B divided by the MIC of compound A alone. • FICB=MICB+A/MICB i.e. the MIC of combination of compound B+compound A divided by the MIC of compound B alone.
# (§4) FIC values were calculated only for combinations that enabled determination of a true MIC (e.g. not > or <=values). FIC indexes were then calculated as the average of individual FIC values for each combination plate.
# S. pyogenes SPY_20015 = test: as above; details: compound G with Gatifloxacin
# Experimental: as §2, §3, §4
smiles,measurement,setting,value
"Cc1c(CN(C)C(=O)/C=C/c2cnc3c(c2)CCC(=O)N3)oc2ccccc12 [Compound G, (E)-N-methyl-N-(3-methylbenzofuran-2-ylmethyl)-3-(7-oxo-5,6,7,8-tetrahydro-1,8-naphthyridin-3-yl)acrylamide]",logCFU/ml at Time (hr): 0,S. pneumoniae 22425; Compound G 0.03 ug/ml,5.20 logCFU/ml
same,logCFU/ml at Time (hr): 2,S. pneumoniae 22425; Compound G 0.03 ug/ml,5.63 logCFU/ml
same,logCFU/ml at Time (hr): 6,S. pneumoniae 22425; Compound G 0.03 ug/ml,7.25 logCFU/ml
same,logCFU/ml at Time (hr): 24,S. pneumoniae 22425; Compound G 0.03 ug/ml,7.61 logCFU/ml
same,ΔlogCFU/ml (24-0 hr),S. pneumoniae 22425; Compound G 0.03 ug/ml,2.41 logCFU/ml
same,logCFU/ml at Time (hr): 0,S. pneumoniae 22425; Compound G 1 ug/ml,5.12 logCFU/ml
same,logCFU/ml at Time (hr): 2,S. pneumoniae 22425; Compound G 1 ug/ml,5.61 logCFU/ml
same,logCFU/ml at Time (hr): 6,S. pneumoniae 22425; Compound G 1 ug/ml,7.18 logCFU/ml
same,logCFU/ml at Time (hr): 24,S. pneumoniae 22425; Compound G 1 ug/ml,7.58 logCFU/ml
same,ΔlogCFU/ml (24-0 hr),S. pneumoniae 22425; Compound G 1 ug/ml,2.45 logCFU/ml
same,logCFU/ml at Time (hr): 0,S. pneumoniae 22257; Compound G 0.03 ug/ml,6.41 logCFU/ml and 6.20 logCFU/ml
same,logCFU/ml at Time (hr): 3,S. pneumoniae 22257; Compound G 0.03 ug/ml,8.31 logCFU/ml and 8.15 logCFU/ml
same,logCFU/ml at Time (hr): 6,S. pneumoniae 22257; Compound G 0.03 ug/ml,9.23 logCFU/ml and 9.35 logCFU/ml
same,logCFU/ml at Time (hr): 8,S. pneumoniae 22257; Compound G 0.03 ug/ml,9.32 logCFU/ml
same,logCFU/ml at Time (hr): 24,S. pneumoniae 22257; Compound G 0.03 ug/ml,9.68 logCFU/ml and 9.65 logCFU/ml
same,ΔlogCFU/ml (24-0 hr),S. pneumoniae 22257; Compound G 0.03 ug/ml,3.26 logCFU/ml and 3.45 logCFU/ml
same,logCFU/ml at Time (hr): 0,S. pneumoniae 22257; Compound G 1 ug/ml,6.43 logCFU/ml and 6.30 logCFU/ml
same,logCFU/ml at Time (hr): 3,S. pneumoniae 22257; Compound G 1 ug/ml,8.30 logCFU/ml and 8.17 logCFU/ml
same,logCFU/ml at Time (hr): 6,S. pneumoniae 22257; Compound G 1 ug/ml,9.33 logCFU/ml and 9.20 logCFU/ml
same,logCFU/ml at Time (hr): 8,S. pneumoniae 22257; Compound G 1 ug/ml,9.47 logCFU/ml and 9.41 logCFU/ml
same,logCFU/ml at Time (hr): 24,S. pneumoniae 22257; Compound G 1 ug/ml,9.68 logCFU/ml and 9.71 logCFU/ml
same,ΔlogCFU/ml (24-0 hr),S. pneumoniae 22257; Compound G 1 ug/ml,3.25 logCFU/ml and 3.40 logCFU/ml
same,logCFU/ml at Time (hr): 0,E. faecalis A6221420; Compound G 0.03 ug/ml,5.10 logCFU/ml
same,logCFU/ml at Time (hr): 2,E. faecalis A6221420; Compound G 0.03 ug/ml,6.03 logCFU/ml
same,logCFU/ml at Time (hr): 4,E. faecalis A6221420; Compound G 0.03 ug/ml,6.42 logCFU/ml
same,logCFU/ml at Time (hr): 8,E. faecalis A6221420; Compound G 0.03 ug/ml,9.88 logCFU/ml
same,logCFU/ml at Time (hr): 24,E. faecalis A6221420; Compound G 0.03 ug/ml,9.91 logCFU/ml
same,ΔlogCFU/ml (24-0 hr),E. faecalis A6221420; Compound G 0.03 ug/ml,4.81 logCFU/ml
same,logCFU/ml at Time (hr): 0,E. faecalis A6221420; Compound G 1 ug/ml,5.12 logCFU/ml
same,logCFU/ml at Time (hr): 2,E. faecalis A6221420; Compound G 1 ug/ml,5.93 logCFU/ml
same,logCFU/ml at Time (hr): 4,E. faecalis A6221420; Compound G 1 ug/ml,6.53 logCFU/ml
same,logCFU/ml at Time (hr): 8,E. faecalis A6221420; Compound G 1 ug/ml,9.76 logCFU/ml
same,logCFU/ml at Time (hr): 24,E. faecalis A6221420; Compound G 1 ug/ml,9.91 logCFU/ml
same,ΔlogCFU/ml (24-0 hr),E. faecalis A6221420; Compound G 1 ug/ml,4.79 logCFU/ml
same,FIC,S. pyogenes SPY_20061; compound G with Ceftriaxone,<2
same,FIC,S. pyogenes SPY_20061; compound G with Gatifloxacin,<2
same,FIC,S. pyogenes SPY_20015,<2

# Reference: patent publication US7879872B2, “Compositions comprising multiple bioactive agents, and methods of using the same” (Affinium Pharmaceuticals, Inc., priority 2003, dated 2011)
